Experimental findings from article PMC10179080, “In Vivo and In Vitro Characterization of Close Analogs of Compound KA-11, a New Antiseizure Drug Candidate” (International Journal of Molecular Sciences, 2023) are described below.

The target of series [1] is 5-HT1A (agonist radioligand) (Homo sapiens, UniProt P08908). Kind of series: Radioligand binding, 5-HT1A.
The subject of series [2] is Calcium Cav1.2 channels (diltiazem site, antagonist radioligand). Kind of series: Radioligand binding, Cav1.2 diltiazem site. The arrangement: species or system rat. How it is done:
(§1) Dysfunction of both sodium and calcium ion channels is known to be one of the crucial reasons behind the pathogenesis of seizures. Consequently, these ion channels are molecular targets for several clinically important ASDs such as lacosamide, lamotrigine, carbamazepine, oxcarbazepine and compounds currently under preclinical and clinical studies. Thus, for KA-228 and KA-232, we tested herein their binding profile toward the aforementioned ion channels at concentrations of 10 and 100 µM (Table 3). […] Apart from in vitro studies focused on explaining the mechanism of action, KA-232 was additionally tested for its interaction with the potassium channel (hERG) which is recognized as one of the most important ‘off-targets’ responsible for harmful arrhythmogenic activity. Thus, the interaction of potential drug candidates with hERG must be excluded at an early stage of development.
(§2) Binding studies were carried out commercially in Eurofins Laboratories (Poitiers, France or New Taipei City, Taiwan).

The target of series [3] is T1, TRPV1 (VR1) (antagonist effect) (Homo sapiens, UniProt Q8NER1).
T1 construct: host or cells: CHO cells
T1 sequence (Q8NER1 whole entry): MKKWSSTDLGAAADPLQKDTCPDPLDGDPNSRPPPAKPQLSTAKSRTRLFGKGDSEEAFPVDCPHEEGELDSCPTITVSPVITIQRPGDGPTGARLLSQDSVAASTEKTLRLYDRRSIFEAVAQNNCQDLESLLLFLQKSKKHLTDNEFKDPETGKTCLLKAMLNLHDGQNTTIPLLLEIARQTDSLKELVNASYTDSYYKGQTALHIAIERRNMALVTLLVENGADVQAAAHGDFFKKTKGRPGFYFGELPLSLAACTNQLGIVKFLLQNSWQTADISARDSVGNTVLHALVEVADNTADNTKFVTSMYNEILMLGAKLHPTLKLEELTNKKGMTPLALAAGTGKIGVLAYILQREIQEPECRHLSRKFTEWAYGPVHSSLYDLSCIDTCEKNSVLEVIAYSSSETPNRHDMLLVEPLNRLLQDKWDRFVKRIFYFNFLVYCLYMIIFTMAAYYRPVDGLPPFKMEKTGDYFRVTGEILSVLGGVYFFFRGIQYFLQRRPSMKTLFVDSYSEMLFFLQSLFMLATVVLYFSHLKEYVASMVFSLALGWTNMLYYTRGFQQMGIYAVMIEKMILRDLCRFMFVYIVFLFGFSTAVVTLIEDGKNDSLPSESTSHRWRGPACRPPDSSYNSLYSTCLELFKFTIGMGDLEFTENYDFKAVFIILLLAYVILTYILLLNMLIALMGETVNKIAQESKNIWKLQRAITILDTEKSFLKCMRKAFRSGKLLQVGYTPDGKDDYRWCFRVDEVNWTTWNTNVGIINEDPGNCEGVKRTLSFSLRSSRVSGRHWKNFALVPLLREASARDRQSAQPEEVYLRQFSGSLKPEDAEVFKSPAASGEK
Kind of series: TRPV1 antagonist functional assay (intracellular Ca2+, CHO cells). In kind it is cell-based. As to conditions: 10 µM. How it is done: as §2

Series [4] deals with tonic–clonic seizures in mice. Kind of series: Maximal electroshock seizure (MES) test. In kind it is in vivo. As to the method:
(§3) The experiments were conducted on adult male albino Swiss mice weighing 22–26 g. The animals were kept in colony cages under standardized laboratory conditions: natural light–dark cycle 12/12 h, temperature 20–24 °C, air humidity 45–65% and free access to tap water and food (chow pellets). After 7 days of adaptation to laboratory conditions, the animals were randomly assigned to experimental groups consisting of 8 mice. The experimental procedures described herein were approved by the Local Ethics Committee in Lublin, Poland (approval numbers: 71/2020 and 13/2021), and were conducted in accordance with EU Directive 2010/63/EU for animal experiments. All efforts were made to minimize animal suffering and to use only the number of animals necessary to produce reliable scientific data according to the 3Rs rule.
(§4) All substances (except PTZ and tetracaine hydrochloride dissolved in water for injections) were suspended in a 1% solution of Tween 80 (Sigma-Aldrich, Saint Louis, MO, USA) in water for injections (Baxter, Warszawa, Poland) or 0.9% NaCl. All drugs were injected intraperitoneally (i.p.) 30 min before all seizure models with 1 mL syringes as a single injection, in a volume of 10 mL/kg. The pretreatment time (30 min) before testing for KA-228 and KA-232 was chosen based on the time to peak of maximum anticonvulsant activity of KA-11 from our previous studies.
The tonic–clonic seizures in mice were evoked by an electric stimulus (an alternating current 25 mA, 50 Hz, maximum output voltage 500 V, 0.2 s) generated by a rodent shocker (Hugo Sachs Elektronik, Freiburg, Germany) and delivered via ear-clip electrodes. […] This experimental procedure has been described in detail in our previous studies.
(§5) The ED50 or TD50 values for tested substances in the acute animal models of seizures were calculated using the computer log-probit analysis. Subsequently, the ED50 and TD50 values (±SEM) were statistically analyzed using one-way analysis of variance (ANOVA) followed by the post hoc Dunnett’s test for multiple comparisons. Differences among values were considered statistically significant if p < 0.05. GraphPad Prism version 8 for Windows (GraphPad Software, San Diego, CA, USA) was used as a statistical software program. The results obtained from the acute ivPTZ test and grip strength test were evaluated by a Student’s t test. Fisher’s exact probability test was used to analyze protection from tonic forelimb and hindlimb extension in the ivPTZ test.
A general note: The maximal electroshock test induces tonic seizures with an electrical stimulus.

The subject of series [5] is Na^+ channel (site 2). Kind of series: Radioligand binding, Na+ channel (site 2). As to conditions: 10 µM. Further details: species or system rat. As to the method:
as §1, §2

Series [6] concerns PTZ-induced clonic seizures in mice. Kind of series: scPTZ-induced convulsions. The class given is in vivo. Particulars: i.p. How it is done: as §3, §4
The PTZ-induced clonic seizures in mice were determined after sc administration of PTZ at a dose of 100 mg/kg. The animals were administered with increasing doses of KA-228 and KA-232, and the anticonvulsant activity of each drug was evaluated as the ED50 value. This experimental procedure has been described in detail in our previous studies.
as §5

A short description of series [7]: Chimney test. Particulars: male, albino Swiss, mouse, in vivo, ip, mice. How it is done:
as §3
The chimney test of Boissier et al. was used to quantify the acute adverse-effect potential of KA-228 and KA-232 on motor performance in mice. […]
The ED50 or TD50 values for tested substances in the acute animal models of seizures were calculated using the computer log-probit analysis. Subsequently, the ED50 and TD50 values (±SEM) were statistically analyzed using one-way analysis of variance (ANOVA) followed by the post hoc Dunnett’s test for multiple comparisons. […] The results obtained from the acute ivPTZ test and grip strength test were evaluated by a Student’s t test. […]

Series [8] is described as follows: Stability in PBS buffer during PAMPA incubation. As to conditions: 5 h incubation in PAMPA plate, PBS pH 7.4, RT. In kind it is physicochemical. In general terms: In PAMPA a lipid-coated filter parts donor from acceptor wells.
The target of series [9] is T2, Calcium Cav2.2 channel (antagonist radioligand) (Rattus norvegicus, UniProt Q02294).
T2 construct: rat cerebral cortex; tissue Eurofins Laboratories; host or cells: rat cerebral cortex
T2 sequence (Q02294 whole entry): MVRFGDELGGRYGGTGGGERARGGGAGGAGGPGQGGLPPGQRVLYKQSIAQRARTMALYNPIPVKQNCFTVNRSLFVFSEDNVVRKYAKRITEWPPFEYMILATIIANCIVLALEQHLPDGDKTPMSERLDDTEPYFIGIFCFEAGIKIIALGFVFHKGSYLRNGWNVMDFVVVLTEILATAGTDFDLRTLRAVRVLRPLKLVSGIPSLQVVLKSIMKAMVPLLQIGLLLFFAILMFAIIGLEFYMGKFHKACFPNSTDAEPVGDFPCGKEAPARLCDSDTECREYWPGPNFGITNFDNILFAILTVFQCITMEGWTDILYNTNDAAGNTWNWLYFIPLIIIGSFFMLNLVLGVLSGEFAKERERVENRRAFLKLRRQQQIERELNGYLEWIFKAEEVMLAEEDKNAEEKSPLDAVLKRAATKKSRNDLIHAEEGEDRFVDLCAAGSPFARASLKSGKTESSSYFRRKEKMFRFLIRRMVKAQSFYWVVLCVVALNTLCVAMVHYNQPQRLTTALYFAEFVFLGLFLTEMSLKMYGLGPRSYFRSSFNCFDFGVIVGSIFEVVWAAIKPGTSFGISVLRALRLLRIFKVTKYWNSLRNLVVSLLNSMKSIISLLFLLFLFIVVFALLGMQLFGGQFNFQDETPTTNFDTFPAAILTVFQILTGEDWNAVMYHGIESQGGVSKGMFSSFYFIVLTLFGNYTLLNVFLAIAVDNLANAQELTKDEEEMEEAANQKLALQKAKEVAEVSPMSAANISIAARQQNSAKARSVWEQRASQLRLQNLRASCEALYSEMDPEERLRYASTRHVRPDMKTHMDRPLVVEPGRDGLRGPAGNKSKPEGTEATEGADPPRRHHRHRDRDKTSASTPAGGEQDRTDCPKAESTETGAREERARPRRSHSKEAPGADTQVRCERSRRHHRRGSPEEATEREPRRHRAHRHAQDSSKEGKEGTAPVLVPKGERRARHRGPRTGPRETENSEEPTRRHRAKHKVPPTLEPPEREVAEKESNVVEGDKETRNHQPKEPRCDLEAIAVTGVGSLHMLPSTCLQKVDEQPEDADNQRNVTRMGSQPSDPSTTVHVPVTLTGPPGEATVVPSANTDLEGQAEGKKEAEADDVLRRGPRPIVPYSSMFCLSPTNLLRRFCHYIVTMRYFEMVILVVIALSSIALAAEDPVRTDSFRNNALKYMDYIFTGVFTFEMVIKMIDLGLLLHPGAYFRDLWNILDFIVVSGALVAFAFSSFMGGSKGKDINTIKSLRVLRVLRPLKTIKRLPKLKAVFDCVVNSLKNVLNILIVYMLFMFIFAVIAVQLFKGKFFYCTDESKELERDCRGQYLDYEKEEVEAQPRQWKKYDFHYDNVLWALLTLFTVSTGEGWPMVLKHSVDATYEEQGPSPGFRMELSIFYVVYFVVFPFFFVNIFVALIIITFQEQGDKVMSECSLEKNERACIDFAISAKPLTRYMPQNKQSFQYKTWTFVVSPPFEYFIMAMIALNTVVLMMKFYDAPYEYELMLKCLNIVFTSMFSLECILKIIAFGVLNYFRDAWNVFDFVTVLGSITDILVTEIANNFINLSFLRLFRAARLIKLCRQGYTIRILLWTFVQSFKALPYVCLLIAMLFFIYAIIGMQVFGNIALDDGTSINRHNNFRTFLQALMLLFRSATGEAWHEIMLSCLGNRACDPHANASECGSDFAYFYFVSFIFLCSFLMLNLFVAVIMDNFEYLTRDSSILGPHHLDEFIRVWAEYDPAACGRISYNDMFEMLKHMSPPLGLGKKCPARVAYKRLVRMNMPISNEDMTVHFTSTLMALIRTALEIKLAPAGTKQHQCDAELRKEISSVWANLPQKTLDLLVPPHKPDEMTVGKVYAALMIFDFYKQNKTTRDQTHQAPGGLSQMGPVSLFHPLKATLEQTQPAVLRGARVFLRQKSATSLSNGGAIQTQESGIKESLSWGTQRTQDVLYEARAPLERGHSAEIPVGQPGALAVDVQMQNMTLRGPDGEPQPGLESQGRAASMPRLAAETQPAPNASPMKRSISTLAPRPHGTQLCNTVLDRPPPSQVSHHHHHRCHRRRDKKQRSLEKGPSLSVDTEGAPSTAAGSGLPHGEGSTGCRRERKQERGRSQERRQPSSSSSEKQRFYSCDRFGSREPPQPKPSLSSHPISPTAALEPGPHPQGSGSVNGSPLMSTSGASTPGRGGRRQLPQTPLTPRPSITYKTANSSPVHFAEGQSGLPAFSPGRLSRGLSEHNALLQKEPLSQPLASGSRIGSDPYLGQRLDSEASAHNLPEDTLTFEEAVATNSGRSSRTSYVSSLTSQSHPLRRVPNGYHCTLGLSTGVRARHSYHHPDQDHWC
Kind of series: Radioligand binding, Cav2.2 channel. As to the method:
as §1, §2

[10] abbreviates: read-out: % Inhibition of Control Specific Binding.

Chain of 5-HT1A (agonist radioligand) (P08908 whole entry): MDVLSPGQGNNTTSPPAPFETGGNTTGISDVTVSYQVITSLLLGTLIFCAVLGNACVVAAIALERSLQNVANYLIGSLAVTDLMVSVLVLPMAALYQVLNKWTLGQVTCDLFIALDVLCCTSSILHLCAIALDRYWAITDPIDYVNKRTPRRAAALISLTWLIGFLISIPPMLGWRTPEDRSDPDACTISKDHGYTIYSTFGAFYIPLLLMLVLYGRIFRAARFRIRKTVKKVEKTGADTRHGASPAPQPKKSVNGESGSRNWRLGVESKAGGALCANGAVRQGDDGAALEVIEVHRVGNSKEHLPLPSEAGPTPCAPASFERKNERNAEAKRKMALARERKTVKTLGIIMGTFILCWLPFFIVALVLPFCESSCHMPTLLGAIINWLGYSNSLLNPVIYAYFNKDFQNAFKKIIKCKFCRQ

Broadly, the inhibition is the change of the read-out against control, counted positive when it falls. In general, ED50 refers to the dose that gives a 50% effect, or the effect in half of the subjects. As for `CC(C(=O)N1CCN(c2cccc(C(F)(F)F)c2)CC1)N1C(=O)CC(N(C)C)C1=O.Cl` (stereo not drawn) [KA-232, 3-(Dimethylamino)-1-(1-oxo-1-(4-(3-(trifluoromethyl)phenyl)piperazin-1-yl)propan-2-yl)pyrrolidine-2,5-dione hydrochloride], the “% Inhibition of Control Specific Binding” value was “did not interact” in series [1] (10 µM); −1.8% in series [2] (10 µM); 17.5% in [2] (100 µM); 3.8% in series [5]; “did not interact” in [9] (10 µM). For the same compound, the inhibition at 10 µM is 9.6% in series [1] (setting [10]); 10.5% in series [3] (CHO, read-out: % Inhibition of control specific binding (functional, antagonist effect)); 10.6% in [9] (setting [10]). The “% Inhibition of control specific binding (functional, antagonist effect)” value in [3] is “did not inhibit”. Also, the ED50 was 61.8 ± 26.9 mg/kg in series [4] (Mus musculus, ip, 30 min before test, read-out: ED50 MES ± SD) and 59.3 ± 78.2 mg/kg in [6] (Mus musculus, scPTZ 100 mg/kg, 30 min before test, read-out: ED50 PTZ ± SD). For the same compound, in [4] (i.p.), the “TI (TD50/ED50), MES” value was found to be 2.63. In series [6] (scPTZ), the “TI (TD50/ED50), PTZ” value is recorded as 2.75. Also, the TD50 at 30 min in series [7] was 163 ± 31.2 mg/kg. Further, the “stability in physiological buffer” value in series [8] is reported as “some products of KA-232 degradation at the pyrrolidine-2,5-dione moiety were observed”.
